Source: patent US20220396565A1 (Hoffmann-La Roche Inc., priority 2020, published 2022)
Counter-ions that a name gives are not always drawn.

The compounds below were run on Acinetobacter baumannii ATCC17961 (assay: Antimicrobial susceptibility testing: 90% growth inhibitory concentration (IC90) determination, Iso-Sensitest broth). Settings: 90% growth inhibitory concentration, Acinetobacter baumannii ATCC17961, Iso-Sensitest broth; formate; read-out: ATCC 17961 IC90.
Format: cell-based
Outline: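 Growth at OD600 was monitored every 20 min for 16 h at 35±2 °C, with bacteria inoculated at ~5×10^(5) CFU/ml into Iso-Sensitest medium. Compounds were tested as 10-point twofold dilutions (e.g. 10–0.02 μM final). The 90% inhibitory concentration comes from the log-phase growth.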
COc1ccc(-c2cnc(C(=O)Nc3ccc(C(=O)N4CCN(C(=O)N[C@H]5CNC[C@@H]5O)CC4)c(Cl)c3)n2C)c(F)c1F [Example 284, 4-[2-chloro-4-[[5-(2,3-difluoro-4-methoxy-phenyl)-1-methyl-imidazole-2-carbonyl]amino]benzoyl]-N-[(3S,4S)-4-hydroxypyrrolidin-3-yl]piperazine-1-carboxamide formate] showed an IC90 of 80 nM.

Same assay, conditions: Acinetobacter baumannii, ATCC17961, 90% growth inhibitory concentration, Acinetobacter baumannii ATCC17961, Iso-Sensitest broth; read-out: ATCC 17961 IC90
Cc1c(-c2cnc(C(=O)Nc3ccc(C(=O)N4CCN(C(=O)C[C@@H]5CCNC5)CC4)c(Cl)c3)n2C)ccc(OCF)c1F [Example 259, N-[3-chloro-4-[4-[2-[(3S)-pyrrolidin-3-yl]acetyl]piperazine-1-carbonyl]phenyl]-5-[3-fluoro-4-(fluoromethoxy)-2-methyl-phenyl]-1-methyl-imidazole-2-carboxamide formate] was tested, and the IC90 was 50 nM. With COc1ccc(-c2cnc(C(=O)Nc3ccc(C(=O)N4CCN(C(=O)C[C@@H]5CCNC5)CC4)c(Cl)c3)n2C)c(C#N)c1F [Example 260, N-[3-chloro-4-[4-[2-[(3S)-pyrrolidin-3-yl]acetyl]piperazine-1-carbonyl]phenyl]-5-(2-cyano-3-fluoro-4-methoxy-phenyl)-1-methyl-imidazole-2-carboxamide formate] the IC90 was 250 nM. Compound COc1ccc(-c2cnc(C(=O)Nc3ccc(C(=O)N4CCN(C(=O)C[C@@H]5CCNC5)CC4)c(Cl)c3)n2C)c(C(F)F)c1F [Example 261, N-[3-chloro-4-[4-[2-[(3S)-pyrrolidin-3-yl]acetyl]piperazine-1-carbonyl]phenyl]-5-[2-(difluoromethyl)-3-fluoro-4-methoxy-phenyl]-1-methyl-imidazole-2-carboxamide formate] has an IC90 of 80 nM. In the case of CN(C)c1ccc(-c2cnc(C(=O)Nc3ccc(C(=O)N4CCN(C(=O)C5CCNCC5)CC4)c(Cl)c3)n2C)c(F)c1F [Example 262, N-[3-chloro-4-[4-(piperidine-4-carbonyl)piperazine-1-carbonyl]phenyl]-5-[4-(dimethylamino)-2,3-difluoro-phenyl]-1-methyl-imidazole-2-carboxamide formate], the IC90 is reported as 70 nM. Work on CN(C)C(=O)c1ccc(-c2cnc(C(=O)Nc3ccc(C(=O)N4CCN(C(=O)C5CCNCC5)CC4)c(Cl)c3)n2C)c(F)c1F [Example 263, N-[3-chloro-4-[4-(piperidine-4-carbonyl)piperazine-1-carbonyl]phenyl]-5-[4-(dimethylcarbamoyl)-2,3-difluoro-phenyl]-1-methyl-imidazole-2-carboxamide formate] yielded an IC90 of 6060 nM. Compound COc1ccc(-c2cnc(C(=O)Nc3ccc(C(=O)N4CCN(C(=O)C5CCNCC5)CC4)c(Cl)c3)n2C)c(F)c1F [Example 265, N-[3-chloro-4-[4-(piperidine-4-carbonyl)piperazine-1-carbonyl]phenyl]-5-(2,3-difluoro-4-methoxy-phenyl)-1-methyl-imidazole-2-carboxamide hydrochloride] has an IC90 of 70 nM. Cn1c(-c2ccc(OCC#N)c(Cl)c2F)cnc1C(=O)Nc1ccc(C(=O)N2CCN(C(=O)C3CCNCC3)CC2)c(Cl)c1 [Example 268, 5-[3-chloro-4-(cyanomethoxy)-2-fluoro-phenyl]-N-[3-chloro-4-[4-(piperidine-4-carbonyl)piperazine-1-carbonyl]phenyl]-1-methyl-imidazole-2-carboxamide] showed an IC90 of 70 nM. CN(C)CCN1CCN(C(=O)c2ccc(NC(=O)c3ncc(-c4ccc(Oc5ccccn5)c(F)c4F)n3C)cc2Cl)CC1 [Example 271, N-[3-chloro-4-[4-[2-(dimethylamino)ethyl]piperazine-1-carbonyl]phenyl]-5-[2,3-difluoro-4-(2-pyridyloxy)phenyl]-1-methyl-imidazole-2-carboxamide trifluoroacetate] gave an IC90 of 640 nM. CN(C)CCN1CCN(C(=O)c2ccc(NC(=O)c3ncc(-c4ccc(Oc5ccncc5)c(F)c4F)n3C)cc2Cl)CC1 [Example 272, N-[3-chloro-4-[4-[2-(dimethylamino)ethyl]piperazine-1-carbonyl]phenyl]-5-[2,3-difluoro-4-(4-pyridyloxy)phenyl]-1-methyl-imidazole-2-carboxamide trifluoroacetate] showed an IC90 of 880 nM. Compound CN(C)CCN1CCN(C(=O)c2ccc(NC(=O)c3ncc(-c4ccc(Oc5ncccn5)c(F)c4F)n3C)cc2Cl)CC1 [Example 273, N-[3-chloro-4-[4-[2-(dimethylamino)ethyl]piperazine-1-carbonyl]phenyl]-5-(2,3-difluoro-4-pyrimidin-2-yloxy-phenyl)-1-methyl-imidazole-2-carboxamide trifluoroacetate] has an IC90 of 1300 nM. COc1ccc(-c2cnc(C(=O)Nc3ccc(C(=O)N4CCN(C(=O)CCOCCC(N)=O)CC4)c(Cl)c3)n2C)c(F)c1F [Example 279, N-(4-(4-(3-(3-Amino-3-oxopropoxy)propanoyl)piperazine-1-carbonyl)-3-chlorophenyl)-5-(2,3-difluoro-4-methoxyphenyl)-1-methyl-1H-imidazole-2-carboxamide] was tested, and the IC90 was 150 nM. COc1ccc(-c2cnc(C(=O)Nc3ccc(C(=O)N4CCN(C(=O)C5CC(C(N)=O)C5)CC4)c(Cl)c3)n2C)c(F)c1F (stereo not shown) [Example 280, N-(4-(4-(3-carbamoylcyclobutane-1-carbonyl)piperazine-1-carbonyl)-3-chlorophenyl)-5-(2,3-difluoro-4-methoxyphenyl)-1-methyl-1H-imidazole-2-carboxamide] showed an IC90 of 100 nM. Cn1c(-c2ccc(OCC#N)c(F)c2F)cnc1C(=O)Nc1ccc(C(=O)N2CCN(C(=O)N[C@H]3CNC[C@@H]3O)CC2)c(Cl)c1 [Example 282] gave an IC90 of 60 nM. COc1ccc(-c2cnc(C(=O)Nc3ccc(C(=O)N4CCN(C(=O)N[C@H]5CNC[C@@H]5O)CC4)c(Cl)c3)n2C)c(F)c1F [Example 283, 4-[2-chloro-4-[[5-(2,3-difluoro-4-methoxy-phenyl)-1-methyl-imidazole-2-carbonyl]ami-no]benzoyl]-N-[(3R,4R)-4-hydroxypyrrolidin-3-yl]piperazine-1-carboxamide formate] showed an IC90 of 40 nM. COc1ccc(-c2cnc(C(=O)Nc3ccc(C(=O)N4CCN(C(=O)N[C@H]5CNC[C@@H]5O)CC4)c(C)c3)n2C)c(F)c1F [Example 285, 4-[4-[[5-(2,3-difluoro-4-methoxy-phenyl)-1-methyl-imidazole-2-carbonyl]amino]-2-methyl-benzoyl]-N-[(3S,4S)-4-hydroxypyrrolidin-3-yl]piperazine-1-carboxamide formate] gave an IC90 of 100 nM. C#CCNCCCNC(=O)C1CCN(C(=O)c2ccc(NC(=O)c3ncc(-c4ccc(OC)c(F)c4F)n3C)cc2CC)CC1 [Example 286, 1-[4-[[5-(2,3-difluoro-4-methoxy-phenyl)-1-methyl-imidazole-2-carbonyl]amino]-2-ethyl-benzoyl]-N-[3-(prop-2-ynylamino)propyl]piper-idine-4-carboxamide] gave an IC90 of 180 nM. Cn1c(-c2ccc(OC(F)F)c(F)c2F)cnc1C(=O)Nc1ccc(C(=O)N2CCN(C(=O)C3CCN(CC(N)=O)CC3)CC2)c(Cl)c1 [Example 289] was tested, and the IC90 was 70 nM. In the case of Cn1c(-c2ccc(OC(F)F)c(F)c2F)cnc1C(=O)Nc1ccc(C(=O)N2CCN(C(=O)C3CCN(CCN)CC3)CC2)c(Cl)c1 [Example 292, N-[4-[4-[1-(2-aminoethyl)piperidine-4-carbonyl]piperazine-1-carbonyl]-3-chloro-phenyl]-5-[4-(difluoromethoxy)-2,3-difluoro-phenyl]-1-methyl-imidazole-2-carboxamide trifluoroacetate], the IC90 is reported as 40 nM.

Same assay, conditions: Acinetobacter baumannii, ATCC17961, read-out: ATCC 17961 IC90
Compound Cn1c(-c2ccc(OCC#N)c(F)c2F)cnc1C(=O)Nc1ccc(C(=O)N2CCN(C(=O)NCCN)CC2)c(Cl)c1 [Example 281, N-(2-Aminoethyl)-4-(2-chloro-4-(5-(4-(cyanomethoxy)-2,3-difluorophenyl)-1-methyl-1H-imidazole-2-carboxamido)benzoyl)piperazine-1-carboxamide 2,2,2-trifluoroacetate] has an IC90 of 60 nM. With Cn1c(-c2ccc(OCC#N)c(F)c2F)cnc1C(=O)Nc1ccc(C(=O)N2CCN(CCNCC(N)=O)CC2)c(Cl)c1 [Example 287, N-[4-[4-[2-[(2-amino-2-oxoethyl)amino]ethyl]piper-azine-1-carbonyl]-3-chloro-phenyl]-5-[4-(cyanomethoxy)-2,3-difluoro-phenyl]-1-methyl-imidazole-2-carboxamide formate] the IC90 was 140 nM. For COc1ccc(-c2cnc(C(=O)Nc3ccc(C(=O)N4CCN(C(=O)C5CCN(CC(=O)O)CC5)CC4)c(Cl)c3)n2C)c(F)c1F [Example 288, 2-[4-[4-[2-Chloro-4-[[5-(2,3-difluoro-4-methoxy-phenyl)-1-methyl-imidazole-2-carbonyl]amino]benzoyl]piperazine-1-carbonyl]-1-piperidyl]acetic acid trifluoroacetate], the IC90 was 470 nM. COc1ccc(-c2cnc(C(=O)Nc3ccc(C(=O)N4CCN(C(=O)C5CCN(CCN)CC5)CC4)c(Cl)c3)n2C)c(F)c1F [Example 290, N-[4-[4-[1-(2-Aminoethyl)piperidine-4-carbonyl]piperazine-1-carbonyl]-3-chloro-phenyl]-5-(2,3-difluoro-4-methoxy-phenyl)-1-methyl-imidazole-2-carboxamide formate] was tested, and the IC90 was 50 nM. For COc1ccc(-c2cnc(C(=O)Nc3ccc(C(=O)N4CCN(CC5CCNC5)CC4)c(Cl)c3)n2C)c(F)c1F (stereo not shown) [Example 291, N-[3-chloro-4-[4-(pyrrolidin-3-ylmethyl)piperazine-1-carbonyl]phenyl]-5-(2,3-difluoro-4-methoxy-phenyl)-1-methyl-imidazole-2-carboxamide formate], the IC90 was 50 nM. COc1ccc(-c2cnc(C(=O)Nc3ccc(C(=O)N4CCN(C(=O)CN5CCCC5)CC4)c(Cl)c3)n2C)c(F)c1F [Example 293, N-[3-Chloro-4-[4-(2-pyrrolidin-1-ylacetyl)piperazine-1-carbonyl]phenyl]-5-(2,3-difluoro-4-methoxy-phenyl)-1-methyl-imidazole-2-carboxamide formate] gave an IC90 of 30 nM.
